Earlier results, collected in patent EP0919231A1, “Injectable parasiticide composition and process for the preparation” (Biogenesis, S.A., priority 1997, dated 1999).

Columns and labels:
[1] = bovines; for detection of parent drug in plasma: after administering albendazole or phenbendazole, found in the gastrointestinal lumen; for detected in plasma, time postreatment: metabolite after administering albendazole or phenbendazole respectively
[2] = system: Haemonchus contortus; details: strain resistant to benzimidazoles; intravenous compared with oral administration
[3] = system: Trichostrongylus colubriformis; details: strain resistant to benzimidazoles; intravenous compared with oral administration

For `CCCSc1ccc2nc(NC(=O)OC)[nH]c2c1` [albendazole], the “detection of parent drug in plasma” value [1] is given as “not detected”.

For `COC(=O)Nc1nc2ccc([S+]([O-])c3ccccc3)cc2[nH]1` (stereo not drawn) [oxphendazole, methyl ester of [(5-phenyl-sulphinyl)-1H-benzimidazol-2-il] carbamic acid], the “effectiveness intravenous versus oral” value [2] is given as “more effective”, the “effectiveness intravenous versus oral” value [3] is given as “more effective” and the “detected in plasma, time postreatment” value [1] is given as no more than 36 h.

For `COC(=O)Nc1nc2ccc(Sc3ccccc3)cc2[nH]1` [phenbendazole], the “detection of parent drug in plasma” value [1] is given as “not detected”.

For `CCC[S+]([O-])c1ccc2[nH]c(NC(=O)OC)nc2c1` (stereo not drawn) [ricobendazole, methyl ester of [(5-propyl-sulphinyl)-1H-benzimidazol-2-il] carbamic acid], the “detected in plasma, time postreatment” value [1] is listed as no more than 36 h.
